Laboratory results: patent US20250122174A1 (Shenzhen Yuanli Shenwan Innovative Medicine Co., Ltd., priority 2022, published 2025)

Molecular target: HPK1 (Homo sapiens (Human), UniProt Q92918)
Assay: HPK1 Inhibition Assay (ADP-Glo kinase assay)
Type: biochemical
Conditions: ATP 10 μM
Procedure, shortened: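 ADP-Glo luminescence read-out after 1 h room-temperature kinase reaction with 10 μM ATP and 0.1 μg/ml MBP. Recombinant human HPK1 at 7.5 ng/μl; buffer 40 mM Tris pH 7.5, 20 mM MgCl2. Compounds serially diluted 5-fold over 10 points from 10 mM DMSO stock.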

Sequence of HPK1 (Q92918 1-346 limits assumed): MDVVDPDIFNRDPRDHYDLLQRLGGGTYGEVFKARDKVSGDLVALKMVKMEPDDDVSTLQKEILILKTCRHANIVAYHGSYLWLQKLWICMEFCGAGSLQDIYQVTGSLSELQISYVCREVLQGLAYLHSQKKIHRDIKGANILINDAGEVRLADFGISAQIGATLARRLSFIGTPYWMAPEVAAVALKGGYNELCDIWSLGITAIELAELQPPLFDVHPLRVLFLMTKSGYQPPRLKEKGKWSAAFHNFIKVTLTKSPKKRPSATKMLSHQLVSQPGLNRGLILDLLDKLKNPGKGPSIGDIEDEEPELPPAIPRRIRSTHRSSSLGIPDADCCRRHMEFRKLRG

`COc1ccc(F)cc1-n1nccc(C(=O)Nc2ccc3c(nc(C)n3C)c2N2CC[C@H](N)C2)c1=O` [Example 50, (S)—N-(4-(3-aminopyrrolidin-1-yl)-1,2-dimethyl-1H-benzo[d]imidazol-5-yl)-2-(5-fluoro-2-methoxyphenyl)-3-oxo-2,3-dihydropyridazine-4-carboxamide] and `Cc1nc2c(N3CC[C@H](N)C3)c(NC(=O)c3ccc(=O)n(-c4c(F)cccc4F)n3)ccc2n1C` [Example 72, (S)-N-(4-(3-aminopyrrolidin-1-yl)-1,2-dimethyl-1H-benzo[d]imidazol-5-yl)-1-(2,6-difluorophenyl)-6-oxo-1,6-dihydropyridazine-3-carboxamide] cannot be ordered by IC50: under 100 nM for the first, under 100 nM for the second.

`CC(C)n1cc2c(N3CCC[C@@H]3CN)c(NC(=O)c3ccc(=O)n(-c4c(F)cccc4F)n3)ccc2n1` [Example 225, (R)-N-(4-(2-(aminomethyl)pyrrolidin-1-yl)-2-isopropyl-2H-indazol-5-yl)-1-(2,6-difluorophenyl)-6-oxo-1,6-dihydropyridazine-3-carboxamide] and `CC(C)n1cc2c(N3C[C@H](N)C4(CC4)C3)c(NC(=O)c3ccc(=O)n(-c4c(F)cccc4F)n3)ccc2n1` [Example 229] cannot be ordered by IC50: under 100 nM for the first, under 100 nM for the second.

`CC(C)c1nc2c(N3CC[C@@](C)(N)C3)c(NC(=O)c3ccc(=O)n(-c4c(F)cccc4F)n3)ccc2n1C` [Example 123, (R)-N-(4-(3-amino-3-methylpyrrolidin-1-yl)-2-isopropyl-1-methyl-1H-benzo[d]imidazol-5-yl)-1-(2,6-difluorophenyl)-6-oxo-1,6-dihydropyridazine-3-carboxamide] and `CC(C)c1nc2c(N3CCC4(CCNC4)C3)c(NC(=O)c3ccc(=O)n(-c4c(F)cccc4F)n3)ccc2n1C` (centres unmarked) [Example 136, 1-(2,6-difluorophenyl)-N-(2-isopropyl-1-methyl-4-(2,7-diazaspiro[4.4]nonan-2-yl)-1H-benzo[d]imidazol-5-yl)-6-oxo-1,6-dihydropyridazine-3-carboxamide] cannot be ordered by IC50: under 100 nM for the first, under 100 nM for the second.

`Cc1nc2c(N3CC(N)CC(F)(F)C3)c(NC(=O)c3ccc(=O)n(-c4c(F)cccc4F)n3)ccc2n1C` (centres unmarked) [Example 96, N-(4-(5-amino-3,3-difluoropiperidin-1-yl)-1,2-dimethyl-1H-benzo[d]imidazol-5-yl)-1-(2,6-difluorophenyl)-6-oxo-1,6-dihydropyridazine-3-carboxamide] and `Cn1c(C(C)(C)F)nc2c(N3CC[C@@H](N)C3)c(NC(=O)c3ccc(=O)n(-c4c(F)cccc4F)n3)ccc21` [Example 155] cannot be ordered by IC50: under 100 nM for the first, under 100 nM for the second.

`COc1cccc(F)c1-c1nccc(C(=O)Nc2ccc3c(nc(C(F)F)n3C)c2N2CCC(N)C2)c1F` (stereo in doubt) [Example 164, N-(4-((S)-3-aminopyrrolidin-1-yl)-2-(difluoromethyl)-1-methyl-1H-benzo[d]imidazol-5-yl)-3-fluoro-2-(2-fluoro-6-methoxyphenyl)isonicotinamide] and `COc1cccc(F)c1-c1nccc(C(=O)Nc2cc(F)ccc2N2C[C@H]3C[C@@H]2CN3)c1F` [Example 2, N-(2-((1R,4R)-2,5-diazabicyclo[2.2.1]heptan-2-yl)-5-fluorophenyl)-3-fluoro-2-(2-fluoro-6-methoxyphenyl)isonicotinamide] cannot be ordered by IC50: under 100 nM for the first, under 100 nM for the second.

`CC(C)c1nc2c(N3CC4[C@@H](N)[C@@H]4C3)c(NC(=O)c3ccc(=O)n(-c4c(F)cccc4F)n3)ccc2n1C` (stereo partly drawn) [Example 118, N-(4-((1R,5S,6s)-6-amino-3-azabicyclo[3.1.0]hexan-3-yl)-2-isopropyl-1-methyl-1H-benzo[d]imidazol-5-yl)-1-(2,6-difluorophenyl)-6-oxo-1,6-dihydropyridazine-3-carboxamide] and `CC(C)c1nc2c(N3C[C@@H](C)[C@@H](N)C3)c(NC(=O)c3ccc(=O)n(-c4c(F)cccc4F)n3)ccc2n1C` [Example 110, N-(4-((3R,4R)-3-amino-4-methylpyrrolidin-1-yl)-2-isopropyl-1-methyl-1H-benzo[d]imidazol-5-yl)-1-(2,6-difluorophenyl)-6-oxo-1,6-dihydropyridazine-3-carboxamide] cannot be ordered by IC50: under 100 nM for the first, under 100 nM for the second.

`CC(C)n1nnc2c(N3C[C@H](N)C4(CC4)C3)c(NC(=O)c3ccc(=O)n(-c4c(F)cccc4F)n3)ccc21` [Example 340, 1-(2,6-difluorophenyl)-N-{4-[(7R)-7-amino-5-azaspiro[2.4]heptan-5-yl]-1-(prop-2-yl)benzo[d][1,2,3]triazol-5-yl}-6-oxo-1,2-diazine-3-carboxamide] and `CC(C)n1ncc2c(N3CC(N)C4(COC4)C3)c(NC(=O)c3ccc(=O)n(-c4c(F)cccc4F)n3)ccc21` (centres unmarked) [Example 206, N-(4-(8-amino-2-oxa-6-azaspiro[3.4]octan-6-yl)-1-isopropyl-1H-indazol-5-yl)-1-(2,6-difluorophenyl)-6-oxo-1,6-dihydropyridazine-3-carboxamide] cannot be ordered by IC50: under 100 nM for the first, under 100 nM for the second.

First: COc1cccc(F)c1-n1cccc(C(=O)Nc2cc(F)ccc2N2C[C@H]3C[C@@H]2CN3)c1=O [Example 51, N-(2-((1R,4R)-2,5-diazabicyclo[2.2.1]heptan-2-yl)-5-fluorophenyl)-1-(2-fluoro-6-methoxyphenyl)-2-oxo-1,2-dihydropyridine-3-carboxamide]
Second: COc1cccc(F)c1-c1cccc(C(=O)Nc2cc(F)ccc2N2C[C@H]3C[C@@H]2CN3)c1F [Example 3, N-(2-((1R,4R)-2,5-diazabicyclo[2.2.1]heptan-2-yl)-5-fluorophenyl)-2,2′-difluoro-6′-methoxy-[1,1′-biphenyl]-3-carboxamide]
The IC50 of the first is lower: under 100 nM for the first, 100 to 1000 nM for the second. The first is the more potent here.

`C[C@@H]1CN(c2c(NC(=O)c3ccc(=O)n(-c4c(F)cccc4F)n3)ccc3nn(C45CC(C)(C4)C5)cc23)C[C@@H]1N` [Example 318, N-(4-((3R,4R)-3-amino-4-methylpyrrolidin-1-yl)-2-(3-methylbicyclo[1.1.1]pentan-1-yl)-2H-indazol-5-yl)-1-(2,6-difluorophenyl)-6-oxo-1,6-dihydropyridazine-3-carboxamide] and `CC1(C)CN(c2c(NC(=O)c3ccc(=O)n(-c4c(F)cccc4F)n3)ccc3nn(C4CC4)cc23)C[C@H]1N` [Example 335, (S)-N-(4-(4-amino-3,3-dimethylpyrrolidin-1-yl)-2-cyclopropyl-2H-indazol-5-yl)-1-(2,6-difluorophenyl)-6-oxo-1,6-dihydropyridazine-3-carboxamide] cannot be ordered by IC50: under 100 nM for the first, under 100 nM for the second.

`CC(C)n1nc(Cl)c2c(N3C[C@@H](C)[C@@H](N)C3)c(NC(=O)c3ccc(=O)n(-c4c(F)cccc4F)n3)ccc21` [Example 191, N-(4-((3R,4R)-3-amino-4-methylpyrrolidin-1-yl)-3-chloro-1-isopropyl-1H-indazol-5-yl)-1-(2,6-difluorophenyl)-6-oxo-1,6-dihydropyridazine-3-carboxamide] and `CC(C)n1cnc2c(N3C[C@@H](C)[C@@H](N)C3)c(NC(=O)c3ccc(=O)n(-c4c(F)cccc4F)n3)ccc21` [Example 154, N-(4-((3R,4R)-3-amino-4-methylpyrrolidin-1-yl)-1-isopropyl-1H-benzo[d]imidazol-5-yl)-1-(2,6-difluorophenyl)-6-oxo-1,6-dihydropyridazine-3-carboxamide] cannot be ordered by IC50: under 100 nM for the first, under 100 nM for the second.

`N#Cc1ccncc1-c1ccc(NC(=O)c2ccc(=O)n(-c3c(F)cccc3F)n2)c(N2CCNCC2)c1` [Example 342, N-(4-(4-cyanopyridin-3-yl)-2-(piperazin-1-yl)phenyl)-1-(2,6-difluorophenyl)-6-oxo-1,6-dihydropyridazine-3-carboxamide] and `C[C@]1(O)CCN(c2cc(-c3cnccc3C#N)ccc2NC(=O)c2ccc(=O)n(-c3c(F)cccc3F)n2)C1` (single isomer, unassigned) [Example 353] cannot be ordered by IC50: under 100 nM for the first, under 100 nM for the second.

`C[C@@H]1CN(c2c(NC(=O)c3ccc(=O)n(-c4c(F)cccc4F)n3)ccc3c2cnn3[C@@H]2CCOC2)C[C@@H]1N` [Example 262, N-(4-((3R,4R)-3-amino-4-methylpyrrolidin-1-yl)-1-((R)-tetrahydrofuran-3-yl)-1H-indazol-5-yl)-1-(2,6-difluorophenyl)-6-oxo-1,6-dihydropyridazine-3-carboxamide] and `C[C@@H]1CN(c2c(NC(=O)c3ccc(=O)n(-c4c(F)cccc4F)n3)ccc3c2cnn3[C@H]2CCOC2)C[C@@H]1N` [Example 255, N-(4-((3R,4R)-3-amino-4-methylpyrrolidin-1-yl)-1-((S)-tetrahydrofuran-3-yl)-1H-indazol-5-yl)-1-(2,6-difluorophenyl)-6-oxo-1,6-dihydropyridazine-3-carboxamide] cannot be ordered by IC50: under 100 nM for the first, under 100 nM for the second.

`CC[C@@H]1CN(c2c(NC(=O)c3ccc(=O)n(-c4c(F)cccc4F)n3)ccc3c2cnn3C(C)C)C[C@@H]1N` (single isomer, unassigned) [Example 197] and `CC(C)n1ncc2c(N3CC[C@@H](N)C3)c(NC(=O)c3ccc(=O)n(-c4c(F)cccc4F)n3)ccc21` [Example 179, N-[4-[(3R)-3-aminopyrrolidin-1-yl]-1-isopropyl-indazol-5-yl]-1-(2,6-difluorophenyl)-6-oxo-pyridazine-3-carboxamide] cannot be ordered by IC50: under 100 nM for the first, under 100 nM for the second.

`CC1(C)CN(c2c(NC(=O)c3ccc(=O)n(-c4c(F)cccc4F)n3)ccc3nn([C@@H]4CCOC4)cc23)C[C@@H]1N` [Example 322, N-(4-((R)-4-amino-3,3-dimethylpyrrolidin-1-yl)-2-((R)-tetrahydrofuran-3-yl)-2H-indazol-5-yl)-1-(2,6-difluorophenyl)-6-oxo-1,6-dihydropyridazine-3-carboxamide] and `CC(C)(C)n1cc2c(N3CC[C@@H](N)C3)c(NC(=O)c3ccc(=O)n(-c4c(F)cccc4F)n3)ccc2n1` [Example 241, (R)-N-(4-(3-aminopyrrolidin-1-yl)-2-(tert-butyl)-2H-indazol-5-yl)-1-(2,6-difluorophenyl)-6-oxo-1,6-dihydropyridazine-3-carboxamide] cannot be ordered by IC50: under 100 nM for the first, under 100 nM for the second.

`Cn1c(C2(C(F)(F)F)CC2)nc2c(N3CC[C@@H](N)C3)c(NC(=O)c3ccc(=O)n(-c4c(F)cccc4F)n3)ccc21` [Example 146, (R)—N-(4-(3-aminopyrrolidin-1-yl)-1-methyl-2-(1-(trifluoromethyl)cyclopropyl)-1H-benzo[d]imidazol-5-yl)-1-(2,6-difluorophenyl)-6-oxo-1,6-dihydropyridazine-3-carboxamide] showed an IC50 of under 100 nM.
